Read-outs that look alike come from different tables or passages of the source.
Assays:
[1] = system: liver; conditions: 1 h ischemia and 1 h reperfusion, all STS doses (Fig. 4b)
Experimental: To implement the ex vivo IRI model, the liver was perfused via the portal vein with oxygenated Krebs-Henseleit buffer for 5 min one-way and 5 min in reverse. Afterwards, the pump was stopped for 1 h followed by 1 h reperfusion. During reperfusion, tissue samples were collected every 10 min.
The method is based on the reaction of GSH with 5,5'-dithiobis(2-nitrobenzoic acid) (DTNB), whereby 2-nitro-5-mercaptobenzoic acid is cleaved, which then leads to a color change. The frozen liver samples were homogenised in a 0.2 M sodium phosphate buffer (pH 8), containing 0.005 M EDTA, and four volumes of 25 % metaphosphoric acid. Subsequently, the samples were centrifuged at 9000 x rcf for 30 min at 4 °C. The absorbance was read at 412 nm using a Spekol 1100 (Carl Zeiss GmbH, Jena, Germany). A standard curve was performed with GSH.
In addition, the GSSG concentration was assessed fluorometrically (fluorescencespectrophotometer F-2000, Hitachi, Tokio, Japan). […] The fluorescence intensity is proportional to the GSSG concentration. […]
Therefore, a monovascular perfusion of the liver through the portal vein (anterograde perfusion) was carried out. […] During the whole experiment, the pressure within the liver was monitored via a pressure transducer (Biopac®Systems Inc, MP150, CA, USA) to control the physiological pressure of the liver. […]

[2] = system: TOM20; conditions: for TOM20 signal: immunofluorescence, without STS 258, healthy control 672
Experimental: In addition to autophagy marker proteins, the translocase of the mitochondrial outer membrane 20 (TOM20) was analysed. […] To detect a possible specific loss of TOM20 in liver cells, immunofluorescence staining was carried out.
Finally, the liver tissue samples were stored for histological and molecular biological analysis.
The total protein content was isolated from the frozen tissue samples by an protein isolation buffer pH 7.5 (10 mM Tris, 250 mM saccharose, 1 mM EDTA, 1 % phosphatase-inhibitor, 1 % protease-inhibitor). To keep organelles and membranes as intact as possible, a tightly fitting Dounce homogenizer (Kimble Chase, Mexico) was used resulting in a mild and mechanical homogenisation. Afterward, the homogenate was centrifuged at 900 x rcf for 10 min at 4 °C. The protein content in the post nucleus supernatant was determined using the BCA assay (Sigma Aldrich, Hamburg, Germany). In addition, the samples were incubated for 15 min at room temperature with Laemmli sample buffer to denature the protein structure.
Afterward, the proteins were separated by size using 4-12 % SDS-gels (NuPAGE® Bis-Tris Gel, Invitrogen, Germany) in a SDS-Gel electrophoresis (XCellSureLock® Mini Gel chamber and NuPAGE®MOPS SDS Running Buffer, Invitrogen, Germany). Subsequently, the proteins were transferred to a PVDF-membrane (Roth, Germany). A blocking solution containing tris-buffered saline and tween 20 (TBST) pH 7.5 (10 mM Tris, 100 mM NaCl, 0.1 % Tween 20) 5 % BSA or skim milk (Sigma-Aldrich, Germany) was used to block unspecific bindings. The membrane was incubated with this solution for 1 h at room temperature. Next, the membrane was incubated with a rabbit polyclonal LC3B antibody (Cell Signaling Technology®, Danvers, USA 1:500 dilution), a rabbit polyclonal TOM20 antibody (Abcam®, Cambridge, UK 1:500 dilution) or a rabbit polyclonal β-actin antibody (Abcam®, Cambridge, UK 1:2,000 dilution) overnight at 4 °C. All primary antibodies were diluted in the blocking solution depending on the manufacture's protocol. After washing the membrane with TBST buffer 3 times, a horseradish peroxidase (HRP)-conjugated secondary antibody (1:5,000) was added for 1 h at room temperature. In the last step, the membrane was washed again with TBST buffer 3 times.
Detection of the secondary antibody by chemiluminescence was performed using HRP substrate (Immobilon Western HRP Substrat, Merck Millipore, USA) by the LAS3000 (GE Healthcare, Frankfurt, Germany). Finally, the target proteins were quantified by densitometric analysis in the software ImageJ (National Institutes of Health, USA). B-actin served as loading control to calculate the differences in the protein expression between the groups.
Immunofluorescence staining was used to investigate the TOM20 localisation. […]

[3] = system: mitochondria; conditions: low dose STS, 1 h after reperfusion (Fig. 5a)
Experimental: The analysis of the ultra-structure of the tissue was performed by TEM. Therefore, the liver had to be perfused with 4 ml/min for 2 min with warm, oxygenated KBH to wash out all blood as described in section 3.4. Afterward, the liver was perfused with fixation buffer pH 7.4 (4 % paraformaldehyde, 2.5 % glutaraldehyde, 0.1 M sodium cacodylate) for 4 min. After the fixation, the liver was removed and cut into 1-2 mm slices. These slides were incubated overnight in the fixation buffer at 4 °C. Subsequently, the slices were cut into cubes and stored in 0.1 M cacodylate buffer.
The samples were embedded in Araldite resin (Piano, Wetzlar, Germany) according to manufacturer's instruction. Semithin sections (1 µm) were stained with Richardson's methylene blue to get a general overview. The areas of the samples were then further trimmed down to 500 x 500 µm. Ultra-thin sections of 80 nm thickness were cut using the ultramicrotome Ultracut E (Reichert-Jung, Wien, Austria). Finally, sections were investigated using a transmission electron microscope EM900 (Zeiss).

[4] = system: hepatic IRI
Source text: The mice were imported by embryonic transfer into the animal facility of the Jena University Hospital and conducted under pathogen free conditions. The original mixed Sv129/C57 background was backcrossed to a 99 % C57BL/6 background. In all experiments male WT and Cse^-/- mice between 10 and 12 weeks were used for a standardised hepatic IRI model. […] Body temperature was maintained with a heating plate. During the actual experiment, ischemia was induced in the left lateral lobe of the liver by clamping the hepatic artery and the portal vein using a microaneurysm clamp (FST, Heidelberg, Germany). This procedure results in a segmental (30 %) ischemia. After 1 h, the clamp was removed to initiate the reperfusion. The reperfusion time points were set to 1 h or 24 h. Subsequently, the mice were sacrificed and both, plasma and organs, were harvested. During deep isoflurane (Forene®, Abb-Vie Deutschland GmbH & Co. KG, Ludwigshafen, Germany) anaesthesia, the blood was collected and plasma was generated. Next, the liver, the kidney and the spleen were removed and washed with saline.
The analysis of the ultra-structure of the tissue was performed by TEM. Therefore, the liver had to be perfused with 4 ml/min for 2 min with warm, oxygenated KBH to wash out all blood as described in section 3.4. […]

[5] = system: mitochondrial respiration chain; type: biochemical, mouse
Experimental: The mitochondrial integrity and function was analysed by measuring the oxygen consumption of the different complexes in the mitochondrial respiration chain. Therefore, the isolation and oxygen consumption of the mitochondria were based on the protocol of Frezza et al. (Organelle isolation: functional mitochondria from mouse liver, muscle and cultured fibroblasts. Nat Protoc, 2 (2): 287-295, 2007.) with some modifications. All chemicals and kits were supplied by Sigma Aldrich, Germany.
The oxygen consumption was measured by a microcathode oxygen electrode (S1782, Strathkelvin Instruments, Great Britain). The electrodes were calibrated according to the manufacturer's protocol. Mitochondria (1 mg protein) were suspended in 1 ml experimental buffer ([…], 10 mM Tris/MOPS, 40 mM EGTA/Tris 4, […]). As a substrate of complexes II, III and IV, 5 mM succinate was added. The main read out is the "respiratory control ratio (RCR)" that can be calculated by the ratio of "state 3" and "state 4" respiration, which is equivalent to the ratio of ADP-dependent respiration and ADP-independent respiration. […] If the ADP was consumed completely, the slope of the oxygen consumption ("state 4" respiration) looked similar to the "state 2" slope.

[6] = system: hepatic IRI; conditions: medium dose 0.045 g STS/kg BW into tail vein
Experimental: Intravital microscopy has been used to analyse the early reperfusion injury in WT and Cse^-/- mice. Assay of plasma parameters and histological staining was applied to analyse later IRI. Rhodamine 123 was injected into the tail vein 5 min before the onset of the experiment. […] The mice were monitored for 2 h without IRI in the sham control group.
In all experiments male WT and Cse^-/- mice between 10 and 12 weeks were used for a standardised hepatic IRI model. One week before the experiments started, 100 µl blood was taken from the orbital sinus. Body temperature was maintained with a heating plate. During the actual experiment, ischemia was induced in the left lateral lobe of the liver by clamping the hepatic artery and the portal vein using a microaneurysm clamp (FST, Heidelberg, Germany). This procedure results in a segmental (30 %) ischemia. […]
IVM was conducted to monitor the mitochondrial membrane potential in vivo with confocal laser scanning microscopy. Therefore, the animals remained under deep general anesthesia using isoflurane and pain reflexes were assessed to gauge the depth of anesthesia. […] Rhodamine 123 was excited at 488 nm (Argon/2 laser) and the emitted light was detected by a monochromatic filter at 530 ± 30 nm (GaAsP detector). […] The standard deviation of the Rhodamine 123 fluorescence signal was calculated to quantify the changes of the mitochondrial granularity over time. […]

sodium thiosulfate [STS] was tested, and the “amount of total glutathione” value [1] was “significantly decreased by IRI independently on STS treatment”, the “TOM20 levels by Western blot” value ([2]; healthy controls vs IRI treated livers vs STS treated groups (Fig. 6a)) was “no significant differences” and the TOM20 signal ([2]; high dose 0.45 g STS/kg BW) was 194 positive cells per mm^2. For the same substance, the TOM20 signal ([2]; low dose 0.0045 g STS/kg BW) was 305 positive cells per mm^2, the TOM20 signal ([2]; medium dose 0.045 g STS/kg BW) was 422 positive cells per mm^2 and the “mitochondrial structure by transmission electron microscopy” value [3] was “retained their normal structure”. The “mitochondrial ultrastructure by transmission electron microscopy” value ([4]; Cse-/- mice after IRI with STS treatment (Fig. 8b)) was “electron-dense accumulation”, the “mitochondrial ultrastructure by transmission electron microscopy” value ([4]; WT mice after IRI with STS treatment (Fig. 8b)) was “normal mitochondrial architecture” and the “RCR at higher concentrations” value [5] was “decreased RCR”. The mitochondrial respiratory activity [5] was “stimulated mitochondrial respiratory activity”, the mitochondrial granularity ([6]; WT and Cse-/- mice, end of reperfusion (120 min)) was “This effect was also detected” and the mitochondrial granularity ([6]; WT mice, beginning of reperfusion (60 min)) was “pronounced recovery of the mitochondrial granularity”.

In the case of sodium hydrogen sulphide [NaHS], the “decline of RCR induced by tert-BOOH oxidative stress” value ([5]; 200 µM tert-BOOH + 1 µM NaHS (Fig. 3b)) was “compensated the decline of RCR”, the mitochondrial respiratory activity ([5]; at low doses (Fig. 3a)) was “stimulated mitochondrial respiratory activity” and the “concentration that induced inhibitory effects on respiratory control ratio (RCR)” value ([5]; isolated mitochondria, 0-100 µM NaHS, no oxidative stress (Fig. 3a)) was 100 µM.
